Where two headings read alike, the source gives them in different places.
Legend:
[1] = Pharmacokinetic test in vivo in SD rats; set-up: species or system male SD rats; conditions: 10 mg/kg; for AUC(0-inf) / AUC(0-t) / C0 / MRT / half-life / Tmax / bioavailability: male, rat, plasma; for bioavailability: read-out: F (oral bioavailability)
Protocol: Compound 1, compound 2 and compound 3 were respectively dissolved in blank solution (5% 1-methyl-2-pyrrolidinone, 20% PEG-400 and 20 mM sodium diphosphate) in a concentration of 10 g/L.
Experimental animals are male SD rats of 6-8 weeks old, with weight of 190-215 g, which were purchased from Beijing Vital River Laboratory Animal Technology Co., Ltd. The SD rats were randomly divided into seven groups based on body weight, each group containing three rats. Wherein group 1 is the blank control group in which the blank solution was administrated intravenously.
Before the pharmacokinetic test, the SD rats were fasted for 16 hours, and then administrated intravenously (1 mL/kg; 10 mg/kg) or orally (1 mL/kg; 10 mg/kg) with single dose of the compound or blank solution according to Table 4. After administration 200 uL blood samples were collected regularly through jugular vein puncture, wherein for the group of animals administered intravenously, blood samples were collected at 0 minute, 15 minutes, 30 minutes, 1 hour, 2 hours, 4 hours, 8 hours and 24 hours after administration; for the group of animals administered orally, blood samples were collected at 0 minute, 15 minutes, 30 minutes, 45 minutes, 75 minutes, 135 minutes, 4 hours, 8 hours and 24 hours after administration. The blood samples were collected in a sample tube with EDTA, and immediately centrifuged under 4000 rpm for 0.5 minutes at 4° C., and then the plasma was transferred to another sample tube and stored at −20° C.
The method and instruments for pharmacokinetics test of samples were as follows: • HPLC: Shimadzu (DGV-20A3, Serial NO: SSI-3-0536; LC-20AD Serial NO: • L20104551674 USB and L20104551673 USB), CTC Analytics HTC PAL System (Serial NO: 4353); • MS: AB API4000 Q Trap LC/MS/MS instrument (Serial NO. AR19020706) • Column: Phenomenex Luna 5μ C18 (2.0×50 mm) • Mobile phase: 100% acetonitrile (2 mM ammonium acetate) and 100% water (2 mM ammonium acetate) • Quantitative Method: internal standard method

male SD rats [2] = test: Oral glucose tolerance test, glucose 15 minutes after administration (Example 5); type: in vivo; conditions: 10 mg/kg orally; for Blood glucose / ΔAUC: Mean ± SD; for Effect on blood glucose level (in words): compared with the blank control group
Protocol: Compound 1, compound 2 and compound 3 were respectively dissolved in blank solutions (5% 1-methyl-2-pyrrolidinone, 20% PEG-400 and 20 mM sodium diphosphate) in the concentration of 10 g/L.
Experimental animals are male SD rats of 6-8 weeks old, with weight of 190-215 g, which were purchased from Beijing Vital River Laboratory Animal Technology Co., Ltd. The SD rats were randomly divided into four groups based on body weight, each group containing three rats. Wherein group 1 is the blank control group in which the rats were administrated with the above blank solution.
(§1) Before the test, the rats were fasted for 16 hours and then administrated orally with the blank solution or compounds. The blood glucose baseline level was measured at 15 minutes after administration, then the rats in each group were administrated orally with 50% glucose aqueous solution in an amount of 2 g/kg. The blood samples (1 drop) were taken from tail veins of rats in each group at 15 minutes, 30 minutes, 1 hour and 2 hours after oral administration of glucose, and the blood glucose level was measured by using Accu-Chek Aviva system.
(§2) Statistical analysis was conducted and the significance level was set to be P<0.05. The mean and standard deviation were calculated for all measurement parameters which were designed for study. One-way analysis of variance (ANOVA) was performed by software GraphPad Prism 5.0 after multiple comparisons among groups.

male SD rats [3] = test: Oral glucose tolerance test, glucose 8 hours after administration (Example 6), blood glucose; type: in vivo; conditions: for Blood glucose / ΔAUC: 10 mg/kg orally, Mean ± SD; for Effect on blood glucose level (in words): glucose at 8 hours after administration, compared with the blank control group
Protocol: (§3) Preparation of the administrated drugs, and grouping and administration of the animals were the same as those in Example 5.
as §1, with “measured at 8 hours after administration,” for “measured at 15 minutes after administration,”
as §2

male SD rats [4] = test: Urine glucose at end of glucose tolerance test (Example 6); type: in vivo; conditions: for Urine glucose: 10 mg/kg orally, urine collected at end of glucose tolerance test, Mean ± SD
Protocol: as §3
as §1, with “measured at 8 hours after administration,” for “measured at 15 minutes after administration,”
At the end of the test, urine of the rats in each group was collected, and then the urine glucose level was analyzed by using TOSHIBA TBA-40FR automatic biochemical analyzer.
as §2

[5] = 2 μM
Protocol: (§4) 1) Master solution was prepared according to Table 1, and then the test compounds and control compound were added into the master solution, with the final concentration of these compounds in the reaction system being 2 μM. Then the mixed solution was preheated at 37° C. for 2 minutes.
(§5) 2) NADPH was added into the mixed solution with the final concentration of NADPH being 1 mM, and then the reaction system was incubated at 37° C. The blank control was also added with the same volume of ultrapure water instead of NADPH.
(§6) 3) 50 μL aliquots were taken out from the reaction system at 0, 15, 30, 45 and 60 minutes, and added with 3 volumes of cold methanol to terminate the reaction. The aliquot was centrifugated for 10 minutes under 16000 g to precipitate proteins. 100 μL of supernatant was used for LC/MS/MS analysis, to determine the amounts of the remaining test compounds and the control compound. The aliquots were detected in duplicate.
(§7) The instruments and conditions for LC analysis were as follows:
(§8) Shimadzu (Degasser DGU—20A3, Solvent Delivery Unit LC—20ADXR, System Controller CBM—20A, Column Oven CTO—10ASVP), CTC Analytics HTC PAL—XT System
(§9) Column: Phenomenex 5μ C 18 (2) (2.0×50 mm)
(§10) The instrument and conditions for MS/MS analysis were as follows: • AB API4000 LC/MS/MS instrument • Source: Turbo spray • Ionization mode: ESI • Type of scan: MRM • Collision gas: 6 L/min; curtain gas: 30 L/min; atomized gas: 50 L/min; auxiliary gas: 50 L/min; temperature: 500° C.; spray voltage: 4500 v.

[6] = male, 2 μM
Protocol: as §4, §5, §6, §7, §8, §9, §10

[7] = Stability test in vitro, human liver microsomes with NADPH; conditions: 2 μM, NADPH 1 mM, 37° C.
Protocol: as §4, §5, §6, §7, §8, §9, §10

[8] = Stability test in vitro, male rat liver microsomes with NADPH; conditions: 2 μM, NADPH 1 mM, 37° C.
Protocol: as §4, §5, §6, §7, §8, §9, §10

[9] = iv, administrated intravenously
[10] = glucose 2 g/kg 15 minutes after administration, 15 minutes after glucose
[11] = glucose 2 g/kg 15 minutes after administration, 30 minutes after glucose
[12] = glucose 2 g/kg 15 minutes after administration, 1 hour after glucose
[13] = glucose 2 g/kg 15 minutes after administration, 2 hours after glucose
[14] = glucose 2 g/kg 15 minutes after administration
[15] = time 0 (baseline 15 minutes after administration, before glucose 2 g/kg)
[16] = glucose 2 g/kg 8 hours after administration, 15 minutes after glucose
[17] = glucose 2 g/kg 8 hours after administration, 30 minutes after glucose
[18] = glucose 2 g/kg 8 hours after administration, 1 hour after glucose
[19] = glucose 2 g/kg 8 hours after administration, 2 hours after glucose
[20] = glucose 2 g/kg 8 hours after administration
[21] = time 0 (baseline 8 hours after administration, before glucose 2 g/kg)

Compound | CI_obs ([1]; administrated intravenously) [mL/min/kg] | Vss_obs ([1]; administrated intravenously) [L/kg] | AUC(0-inf) [1, 9] [ng·h/mL] | AUC(0-t) [1, 9] [ng·h/mL] | C0 [1, 9] [ng/mL] | MRT [1, 9] [h] | half-life [1, 9] [h] | AUC(0-inf) ([1]; po, administrated orally) [ng·h/mL] | AUC(0-t) ([1]; po, administrated orally) [ng·h/mL] | C0 ([1]; po, administrated orally) [ng/mL] | Tmax ([1]; po, administrated orally) [h] | half-life ([1]; po, administrated orally) [h] | bioavailability ([1]; po, administrated orally) [%] | Blood glucose (male SD rats [2]; [10]) [mg/dL] | Blood glucose (male SD rats [2]; [11]) [mg/dL] | Blood glucose (male SD rats [2]; [12]) [mg/dL] | Blood glucose (male SD rats [2]; [13]) [mg/dL] | ΔAUC (male SD rats [2]; [14]) [mg·h/dL] | Blood glucose (male SD rats [2]; [15]) [mg/dL] | Blood glucose (male SD rats [3]; [16]) [mg/dL] | further results
CCOc1ccc(Cc2cc([C@@H]3O[C@H](CO)[C@@H](O)[C@H](O)[C@H]3O)ccc2Cl)cc1 [Compound 1, Dapagliflozin, reference compound] | 2.99 | 0.903 | 56500 | 55800 | 11000 | 4.76 | 3.95 | 39100 | 41400 | 3880 | 1.25 | 4.14 | 69.1 | 97.2 ± 17.36 | 102.6 ± 20.44 | 94.8 ± 17.11 | 72.0 ± 10.95 | 20.2 ± 19.32 | 85.2 ± 4.53 | 96.60 ± 21.70 | Blood glucose (male SD rats [3]; [17]): 131.40 ± 8.25 mg/dL; Blood glucose (male SD rats [3]; [18]): 123.60 ± 4.53 mg/dL; Blood glucose (male SD rats [3]; [19]): 72.60 ± 6.81 mg/dL; ΔAUC (male SD rats [3]; [20]): 107.90 ± 8.53 mg·h/dL; Blood glucose (male SD rats [3]; [21]): 50.40 ± 9.52 mg/dL; Urine glucose (male SD rats [4]): 294.90 ± 12.29 mmol/L; Residual percentage of compounds in human liver microsome ([5]; 0 min): 100.00%; Residual percentage of compounds in human liver microsome ([5]; 15 min): 100.36%; Residual percentage of compounds in human liver microsome ([5]; 30 min): 102.10%; Residual percentage of compounds in human liver microsome ([5]; 45 min): 101.77%; Residual percentage of compounds in rat liver microsome ([6]; 0 min): 100.00%; Residual percentage of compounds in rat liver microsome ([6]; 15 min): 88.37%; Residual percentage of compounds in rat liver microsome ([6]; 30 min): 90.68%; Residual percentage of compounds in rat liver microsome ([6]; 45 min): 83.66%
OC[C@H]1O[C@@H](c2ccc(Cl)c(Cc3ccc(OCC(F)(F)F)cc3)c2)[C@H](O)[C@@H](O)[C@@H]1O [Compound 2] | 1.59 | 1.18 | 107000 | 87800 | 11300 | 7.35 | 9.8 | 193000 | 77300 | 5090 | 1.25 | 30 | 88 | 126.6 ± 26.11 | 143.4 ± 24.44 | 138.6 ± 17.17 | 97.2 ± 13.59 | 77.2 ± 20.44 | 85.8 ± 2.75 | 103.20 ± 12.64 | Effect on blood glucose level (in words) (male SD rats [2]): effect of lowering blood glucose level; Blood glucose (male SD rats [3]; [17]): 154.20 ± 2.75 mg/dL; Blood glucose (male SD rats [3]; [18]): 141.00 ± 2.08 mg/dL; Blood glucose (male SD rats [3]; [19]): 85.20 ± 1.04 mg/dL; ΔAUC (male SD rats [3]; [20]): 115.00 ± 3.55 mg·h/dL; Blood glucose (male SD rats [3]; [21]): 62.40 ± 2.75 mg/dL; Effect on blood glucose level (in words) (male SD rats [3]): effect of lowering blood glucose level; Urine glucose (male SD rats [4]): 197.90 ± 56.27 mmol/L; Urine glucose level (in words) (male SD rats [4]; compared to the blank control group, oral administration): significantly increased; Residual percentage of compounds in human liver microsome ([7]; sampling time 0 minute): 100.00%; Residual percentage of compounds in human liver microsome ([7]; sampling time 15 minutes): 80.84%; Residual percentage of compounds in human liver microsome ([7]; sampling time 30 minutes): 78.78%; Residual percentage of compounds in human liver microsome ([7]; sampling time 45 minutes): 76.73%; Residual percentage of compounds in human liver microsome ([7]; sampling time 60 minutes): 75.34%; Residual percentage of compounds in rat liver microsome ([8]; sampling time 0 minute): 100.00%; Residual percentage of compounds in rat liver microsome ([8]; sampling time 15 minutes): 88.20%; Residual percentage of compounds in rat liver microsome ([8]; sampling time 30 minutes): 94.51%; Residual percentage of compounds in rat liver microsome ([8]; sampling time 45 minutes): 91.65%; Residual percentage of compounds in rat liver microsome ([8]; sampling time 60 minutes): 88.27%
OC[C@H]1O[C@@H](c2ccc(Cl)c(C(F)(F)c3ccc(OCC(F)(F)F)cc3)c2)[C@H](O)[C@@H](O)[C@@H]1O [Compound 3] | 0.75 | 1.56 | 260000 | 113000 | 6640 | 10.1 | 28.3 | 44700 | 20800 | 1400 | 8 | 20.4 | 17.2 | 143.4 ± 18.91 | 172.8 ± 25.01 | 148.2 ± 11.98 | 88.8 ± 17.11 | 87.6 ± 15.90 | 90.0 ± 13.59 | 148.80 ± 9.06 | Effect on blood glucose level (in words) (male SD rats [2]): effect of lowering blood glucose level; Blood glucose (male SD rats [3]; [17]): 198.60 ± 8.51 mg/dL; Blood glucose (male SD rats [3]; [18]): 183.00 ± 12.25 mg/dL; Blood glucose (male SD rats [3]; [19]): 128.40 ± 3.75 mg/dL; ΔAUC (male SD rats [3]; [20]): 144.40 ± 18.72 mg·h/dL; Blood glucose (male SD rats [3]; [21]): 90.00 ± 1.80 mg/dL; Effect on blood glucose level (in words) (male SD rats [3]): effect of lowering blood glucose level; Urine glucose (male SD rats [4]): 0.10 ± 0.17 mmol/L; Residual percentage of compounds in human liver microsome ([7]; sampling time 0 minute): 100.00%; Residual percentage of compounds in human liver microsome ([7]; sampling time 15 minutes): 105.74%; Residual percentage of compounds in human liver microsome ([7]; sampling time 30 minutes): 98.43%; Residual percentage of compounds in human liver microsome ([7]; sampling time 45 minutes): 101.18%; Residual percentage of compounds in human liver microsome ([7]; sampling time 60 minutes): 97.89%; Residual percentage of compounds in rat liver microsome ([8]; sampling time 0 minute): 100.00%; Residual percentage of compounds in rat liver microsome ([8]; sampling time 15 minutes): 99.00%; Residual percentage of compounds in rat liver microsome ([8]; sampling time 30 minutes): 92.49%; Residual percentage of compounds in rat liver microsome ([8]; sampling time 45 minutes): 97.25%; Residual percentage of compounds in rat liver microsome ([8]; sampling time 60 minutes): 108.11%
